Data reported in patent US11230540B2, “Substituted triazole derivatives and uses thereof” (Bayer Pharma Aktiengesellschaft, priority 2017, dated 2022).

Legend:
human V1a receptor = target: T1, human V1a receptor (Homo sapiens, UniProt P37288); experiment: Cellular in vitro assay for vasopressin receptor activity, V1a receptor cell line (aequorin luminescence); assay type: cell-based; settings: for IC50: CHO cell line transfected with human V1a receptor, [Arg8]-vasopressin at EC50 concentration, read-out: IC50 hV1a; for ratio IC50 hV2/hV1a: selectivity ratio of the IC50 values hV2/hV1a
T1 construct: expressed in transfected cells; host or cells: CHO K1 (Chinese hamster ovary), also stably transfected with a modified aequorin
T1 sequence (P37288 whole entry): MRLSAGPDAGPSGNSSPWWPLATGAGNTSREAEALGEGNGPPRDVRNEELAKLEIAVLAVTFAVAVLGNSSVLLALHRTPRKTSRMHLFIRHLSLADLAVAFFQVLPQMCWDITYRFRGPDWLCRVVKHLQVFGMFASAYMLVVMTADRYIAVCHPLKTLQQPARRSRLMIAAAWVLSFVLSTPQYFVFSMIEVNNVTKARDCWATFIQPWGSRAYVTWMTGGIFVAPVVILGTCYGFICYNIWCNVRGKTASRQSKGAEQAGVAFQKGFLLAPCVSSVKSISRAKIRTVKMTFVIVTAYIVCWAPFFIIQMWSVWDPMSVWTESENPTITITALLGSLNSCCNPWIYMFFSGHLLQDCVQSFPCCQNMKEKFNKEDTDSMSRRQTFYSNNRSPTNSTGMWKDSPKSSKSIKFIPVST
Summary of the method: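 Recombinant CHO K1 cells stably expressing human V1a receptor and aequorin, loaded with coelenterazine, were exposed to test compounds for 10 minutes before [Arg^8]-vasopressin at EC50 concentration. Calcium-triggered luminescence was measured immediately, giving IC50 values.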

human V2 receptor = target: T2, human V2 receptor (Homo sapiens, UniProt P30518); experiment: Cellular in vitro assay for vasopressin receptor activity, V2 receptor cell line (CRE-luciferase); assay type: cell-based; settings: CHO cell line transfected with human V2 receptor; [Arg8]-vasopressin at EC50 concentration; read-out: IC50 hV2
T2 construct: expressed in transfected cells; host or cells: CHO K1 (Chinese hamster ovary) expressing firefly luciferase under a CRE-responsive promoter
T2 sequence (P30518 whole entry): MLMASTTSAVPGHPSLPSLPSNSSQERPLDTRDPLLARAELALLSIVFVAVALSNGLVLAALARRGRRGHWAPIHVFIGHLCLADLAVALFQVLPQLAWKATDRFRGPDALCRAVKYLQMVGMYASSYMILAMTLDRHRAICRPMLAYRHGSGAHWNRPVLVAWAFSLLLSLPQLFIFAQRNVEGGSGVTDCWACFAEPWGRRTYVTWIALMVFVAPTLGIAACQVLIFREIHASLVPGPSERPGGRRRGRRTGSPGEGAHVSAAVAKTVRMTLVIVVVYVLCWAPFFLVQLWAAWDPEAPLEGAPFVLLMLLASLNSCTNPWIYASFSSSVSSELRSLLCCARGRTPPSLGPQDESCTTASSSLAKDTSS
Summary of the method: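 CHO K1 cells stably expressing human V2 receptor with CRE-driven firefly luciferase, plated the day before. Test compounds at various concentrations added together with [Arg^8]-vasopressin at EC50 concentration, 3 h at 37° C, 5% CO2. Luminescence read after Triton lysis and luciferin addition; IC50 values reported.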

Structure (SMILES)	IC50 (human V1a receptor) [nM]	ratio IC50 hV2/hV1a (human V1a receptor)	IC50 (human V2 receptor) [nM]
O=C(c1nc(Cn2nc(-c3ccc(Cl)cc3)n(C[C@H](O)C(F)(F)F)c2=O)nn1-c1ccccc1Cl)N1CC(O)(C(F)(F)F)C1 [Example 12, 5-(4-Chlorophenyl)-2-{[1-(2-chlorophenyl)-5-{[3-hydroxy-3-(trifluoromethyl)azetidin-1-yl]carbonyl}-1H-1,2,4-triazol-3-yl]methyl}-4-[(2S)-3,3,3-trifluoro-2-hydroxypropyl]-2,4-dihydro-3H-1,2,4-triazol-3-one]	1.19	18.7	22.2
CC(C)(O)CNC(=O)c1nc(Cn2nc(-c3ccc(Cl)cc3)n(C[C@H](O)C(F)(F)F)c2=O)nn1-c1cnccc1Cl [Example 2, 3-({3-(4-Chlorophenyl)-5-oxo-4-[(2S)-3,3,3-trifluoro-2-hydroxypropyl]-4,5-dihydro-1H-1,2,4-triazol-1-yl}methyl)-1-(4-chloropyridin-3-yl)-N-(2-hydroxy-2-methylpropyl)-1H-1,2,4-triazole-5-carboxamide]	0.45	51.7	23
